Results reported in patent publication US20260078089A1, “BIOACTIVE PHYTOCHEMICALS IN ZIZYPHUS AND GUARANA” (Phytoquest Limited, priority 2018, published 2026).

Assays:
male ddy mouse [1] = assay: Maltose loading test, blood glucose in mice; format: in vivo; conditions: oral maltose 2.5 g/kg, test sample 500 mg/kg body weight, mean n = 5
Method: (§1) The animal experimental protocols in this study were approved by the Animal Experiments Committee of the University of Toyama (S-2010 UH-2). Male ddy mice (29-33 g) after an overnight fast were used for acute disaccharide loading tests. Maltose (2.5 g/kg body weight) or Sucrose (2.5 g/kg body weight) as well as the test samples were dissolved in 0.9% NaCl solution and administered to mice via a stomach tube. A control group was loaded with saline only.
(§2) Blood samples for glucose measurements were obtained from the tail vein at 0, 15, 30, 60, and 120 min after disaccharide-loading. The blood glucose levels were measured by a portable kit, Antsence II™ (Sankyo Co. Ltd. Tokyo, Japan). The Zizyphus extract HS0810/142/41 as well as the purified compounds were tested in this way.

α-D-glucosidase [2] = target: T1, α-D-glucosidase (Oryza sativa subsp. japonica, UniProt Q653V7); assay: Glycosidase assay, p-nitrophenyl substrate; format: biochemical; conditions: Rice enzyme; screened at 0.14 mg mL−1 (footnote: 0.4 mM)
T1 construct: purchased Sigma Aldrich Chemicals Limited
Method: (§3) Glycosidase assays were conducted as described by Watson et al. (Phytochemistry 1997, 46, 255) using p-nitrophenyl-substrates (except sialidase which used methylumbeliferyl-N-acetyineuraminic acid as substrate). Assays were carried out in microtitre plates. Enzymes were assayed in 0.1 M citric acid/0.2 M di-sodium hydrogen phosphate (McIlvaine) buffers at the optimum pH for the enzyme. All assays were carried out at 20° C. All enzymes and substrates were purchased from Sigma Aldrich Chemicals Limited. The incubation mixture consisted of 10 μl of enzyme solution, 10 μl of the iminosugars solution and 50 μl of the appropriate 5 mM p-nitrophenyl substrate made up in McIlvaine buffer at the optimum pH for the enzyme. The reactions were stopped with 0.4 M glycine (pH 10.4) during the exponential phase of the reaction. Absorbances were read at 405 nm. Water was substituted for the alkaloids in the blanks. Reactions were carried out in triplicate.
(§4) Enzyme inhibitor solutions—Compounds were dissolved in distilled water at a concentration of 1 mg mL^−1 and then screened at a concentration of 0.14 mg mL^−1 after dilution of the 1 mg mL^−1 in the assay volumes of substrates.

α-L-fucosidase = target: T2, α-L-fucosidase (Bos taurus, UniProt Q2KIM0); assay: Glycosidase assay, p-nitrophenyl substrate; format: biochemical; conditions: Bovine kidney enzyme; screened at 0.14 mg mL−1 (footnote: 0.4 mM)
T2 construct: purchased Sigma Aldrich Chemicals Limited
T2 sequence (Q2KIM0 23-468): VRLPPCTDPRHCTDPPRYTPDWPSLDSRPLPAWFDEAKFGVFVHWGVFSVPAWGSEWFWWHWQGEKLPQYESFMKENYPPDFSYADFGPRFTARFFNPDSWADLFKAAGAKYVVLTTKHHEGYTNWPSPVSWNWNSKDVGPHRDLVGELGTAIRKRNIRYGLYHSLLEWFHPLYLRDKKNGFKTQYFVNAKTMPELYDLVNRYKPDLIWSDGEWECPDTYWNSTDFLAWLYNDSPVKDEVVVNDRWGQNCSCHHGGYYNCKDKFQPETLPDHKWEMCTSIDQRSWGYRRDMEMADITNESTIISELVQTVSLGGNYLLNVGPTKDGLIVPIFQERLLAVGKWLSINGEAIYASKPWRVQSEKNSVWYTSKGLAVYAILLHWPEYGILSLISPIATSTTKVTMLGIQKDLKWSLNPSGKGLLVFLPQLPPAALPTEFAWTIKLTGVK
Method: as §3, §4

[3] = target: T3, N-acetyl-β-D-hexosaminidase (Aspergillus oryzae, UniProt Q8J2T0); assay: Glycosidase assay, p-nitrophenyl substrate; format: biochemical; conditions: Aspergillus oryzae enzyme; screened at 0.14 mg mL−1 (footnote: 0.4 mM)
T3 construct: purchased Sigma Aldrich Chemicals Limited
Method: as §3, §4

α-D-mannosidase = target: T4, α-D-mannosidase (Canavalia ensiformis, UniProt C0HJB3); assay: Glycosidase assay, p-nitrophenyl substrate; format: biochemical; conditions: Jack bean enzyme; screened at 0.14 mg mL−1 (footnote: 0.4 mM)
T4 construct: purchased Sigma Aldrich Chemicals Limited
T4 sequence (C0HJB3 1-981): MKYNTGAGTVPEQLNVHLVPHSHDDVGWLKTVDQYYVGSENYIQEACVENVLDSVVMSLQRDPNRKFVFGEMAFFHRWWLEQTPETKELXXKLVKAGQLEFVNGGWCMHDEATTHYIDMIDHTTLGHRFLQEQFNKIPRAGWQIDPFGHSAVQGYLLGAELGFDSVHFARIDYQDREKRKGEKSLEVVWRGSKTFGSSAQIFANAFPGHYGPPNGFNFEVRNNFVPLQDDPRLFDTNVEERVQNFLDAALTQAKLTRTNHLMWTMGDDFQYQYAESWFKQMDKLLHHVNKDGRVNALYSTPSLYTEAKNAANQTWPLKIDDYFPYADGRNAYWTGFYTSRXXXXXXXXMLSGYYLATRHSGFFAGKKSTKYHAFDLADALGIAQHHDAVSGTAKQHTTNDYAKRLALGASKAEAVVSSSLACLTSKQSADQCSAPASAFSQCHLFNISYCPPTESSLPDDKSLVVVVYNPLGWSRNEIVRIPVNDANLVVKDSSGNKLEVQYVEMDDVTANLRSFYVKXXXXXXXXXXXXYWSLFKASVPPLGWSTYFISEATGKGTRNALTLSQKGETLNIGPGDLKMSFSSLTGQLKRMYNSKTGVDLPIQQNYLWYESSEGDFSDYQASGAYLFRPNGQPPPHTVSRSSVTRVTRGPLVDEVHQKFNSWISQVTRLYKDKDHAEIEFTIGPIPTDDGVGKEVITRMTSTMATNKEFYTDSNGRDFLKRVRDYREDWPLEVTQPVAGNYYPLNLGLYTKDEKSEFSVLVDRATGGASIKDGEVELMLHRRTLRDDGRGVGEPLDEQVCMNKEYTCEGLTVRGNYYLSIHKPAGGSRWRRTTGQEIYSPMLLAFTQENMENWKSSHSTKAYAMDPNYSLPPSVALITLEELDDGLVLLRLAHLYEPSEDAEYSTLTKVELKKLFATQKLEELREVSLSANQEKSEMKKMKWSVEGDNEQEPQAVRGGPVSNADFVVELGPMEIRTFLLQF
Method: as §3, §4

α-D-glucosidase [4] = target: T5, α-D-glucosidase (Saccharomyces cerevisiae, UniProt P53341); assay: Glycosidase assay, p-nitrophenyl substrate; format: biochemical; conditions: Saccharomyces cerevisiae enzyme; screened at 0.14 mg mL−1 (footnote: 0.4 mM); 20° C
T5 construct: purchased Sigma Aldrich Chemicals Limited
Method: as §3, §4

α-D-galactosidase = target: T6, α-D-galactosidase (Coffea arabica, UniProt Q42656); assay: Glycosidase assay, p-nitrophenyl substrate; format: biochemical; conditions: Green coffee bean enzyme; screened at 0.14 mg mL−1 (footnote: 0.4 mM)
T6 construct: purchased Sigma Aldrich Chemicals Limited
Method: as §3, §4

male ddy mouse [5] = assay: Sucrose loading test, blood glucose in mice; format: in vivo; conditions: oral sucrose 2.5 g/kg, test sample 500 mg/kg body weight, mean n = 5
Method: as §1, §2

[6] = test system: sialidase (NanH from T. forsythia); assay: Sialidase assay with MUNANA substrate; format: biochemical, Tannerella forsythia; conditions: 1 mM inhibitor, 2.5 nM sialidase, 0.1 mM MUNANA, pH 7.2
Method: Sialidase assays used 1 mM inhibitor (or water without inhibitor) and 2.5 nM sialidase (including NanH from T. forsythia) incubated in the presence of 0.1 mM methylumbeliferyl-N-acetylneuraminic acid, pH 7.2 in 20 mM sodium phosphate buffer. Reactions were stopped at 30 seconds and 60 seconds via addition of ph 10.5 60 mM sodium carbonate buffer. Release of fluorogenic MU was quantified by measuring fluorescence emission at 450 nm, excitation 350 nm. Percentage sialidase activity was expressed as the change in fluorescence between 30 seconds and 60 seconds compared to that of a reaction without inhibitor. Reactions were carried out in triplicate.
MU release can be used to quantify sialidase activity.
1 mM inhibitor (or water without inhibitor) and 2.5 nM sialidase (including NanH from T. forsythia) was incubated in the presence of 0.1 mM MUNANA, pH 7.2 20 mM Sodium Phosphate buffer. Reactions were stopped at 30 seconds and 60 seconds via addition of ph 10.5 60 mM sodium carbonate buffer. Release of fluorogenic MU was quantified by measuring fluorescence emission at 450 nm, excitation 350 nm. Percentage sialidase activity was expressed as the change in fluorescence between 30 seconds and 60 seconds compared to that of a reaction without inhibitor. Reactions were carried out in triplicate.

glucosidases = assay: Glycosidase panel, glucosidases overall; format: biochemical; conditions: panel of glucosidases
Method: Glycosidase assays were conducted on Compounds 1 and 3 and an extract of Zizyphus used in the disaccharide loading mouse studies to determine if glucosidase inhibition might explain the effects on blood glucose. A panel of glycosidases were used to be sure any activity found was a selective inhibition and not just non-specific binding to the enzyme.
as §3, with “triplicate. […]” for “triplicate.”

Naringinase = assay: Glycosidase assay, p-nitrophenyl substrate; format: biochemical; conditions: Penicillium decumbens enzyme; screened at 0.14 mg mL−1 (footnote: 0.4 mM)
Method: as §3, §4

β-D-mannosidase = assay: Glycosidase assay, p-nitrophenyl substrate; format: biochemical; conditions: Cellullomonas fimi enzyme; screened at 0.14 mg mL−1 (footnote: 0.4 mM)
Method: as §3, §4

β-D-galactosidase = assay: Glycosidase assay, p-nitrophenyl substrate; format: biochemical; conditions: Bovine liver enzyme; screened at 0.14 mg mL−1 (footnote: 0.4 mM)
Method: as §3, §4

[7] = test system: N-acetyl-β-D-glucosaminidase; assay: Glycosidase assay, p-nitrophenyl substrate; format: biochemical; conditions: screened at 0.14 mg mL−1 (footnote: 0.4 mM)
Method: as §3, §4

Amyloglucosidase = target: T7, Amyloglucosidase (Aspergillus niger, UniProt P69328); assay: Glycosidase assay, p-nitrophenyl substrate; format: biochemical; conditions: Aspergillus niger enzyme; screened at 0.14 mg mL−1 (footnote: 0.4 mM)
T7 construct: purchased Sigma Aldrich Chemicals Limited
Method: as §3, §4

β-D-glucosidase = assay: Glycosidase assay, p-nitrophenyl substrate; format: biochemical; conditions: Almond enzyme; screened at 0.14 mg mL−1 (footnote: 0.4 mM)
Method: as §3, §4

α-D-glucosidase [8] = assay: Glycosidase assay, p-nitrophenyl substrate; format: biochemical; conditions: Bacillus sterothermphilus enzyme; screened at 0.14 mg mL−1 (footnote: 0.4 mM)
Method: as §3, §4

T6 sequence (Q42656 16-378): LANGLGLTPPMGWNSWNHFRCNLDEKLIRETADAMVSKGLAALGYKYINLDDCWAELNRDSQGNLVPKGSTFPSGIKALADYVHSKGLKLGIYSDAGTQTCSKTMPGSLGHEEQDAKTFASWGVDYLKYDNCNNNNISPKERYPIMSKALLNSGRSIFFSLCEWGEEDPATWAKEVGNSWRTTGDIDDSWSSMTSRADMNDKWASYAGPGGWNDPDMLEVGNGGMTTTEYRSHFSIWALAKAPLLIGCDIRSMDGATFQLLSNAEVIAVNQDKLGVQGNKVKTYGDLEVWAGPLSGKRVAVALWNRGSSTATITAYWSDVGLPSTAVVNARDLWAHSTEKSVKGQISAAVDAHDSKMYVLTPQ
T5 sequence (P53341 whole entry): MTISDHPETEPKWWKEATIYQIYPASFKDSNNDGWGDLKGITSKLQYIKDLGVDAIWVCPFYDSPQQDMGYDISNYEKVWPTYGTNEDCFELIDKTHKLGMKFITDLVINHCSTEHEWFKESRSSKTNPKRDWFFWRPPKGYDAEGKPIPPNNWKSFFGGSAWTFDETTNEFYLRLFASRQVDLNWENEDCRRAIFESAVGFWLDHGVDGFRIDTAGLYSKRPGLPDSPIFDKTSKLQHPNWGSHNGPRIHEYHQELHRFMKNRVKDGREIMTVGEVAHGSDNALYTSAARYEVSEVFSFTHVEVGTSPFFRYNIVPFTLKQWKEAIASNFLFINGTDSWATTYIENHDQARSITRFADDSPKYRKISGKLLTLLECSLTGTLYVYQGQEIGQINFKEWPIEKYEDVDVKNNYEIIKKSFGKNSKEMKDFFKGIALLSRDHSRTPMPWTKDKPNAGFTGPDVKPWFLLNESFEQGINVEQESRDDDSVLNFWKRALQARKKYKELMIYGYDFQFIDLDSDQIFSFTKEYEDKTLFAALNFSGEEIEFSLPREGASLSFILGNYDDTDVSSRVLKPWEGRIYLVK
T1 sequence (Q653V7 34-885): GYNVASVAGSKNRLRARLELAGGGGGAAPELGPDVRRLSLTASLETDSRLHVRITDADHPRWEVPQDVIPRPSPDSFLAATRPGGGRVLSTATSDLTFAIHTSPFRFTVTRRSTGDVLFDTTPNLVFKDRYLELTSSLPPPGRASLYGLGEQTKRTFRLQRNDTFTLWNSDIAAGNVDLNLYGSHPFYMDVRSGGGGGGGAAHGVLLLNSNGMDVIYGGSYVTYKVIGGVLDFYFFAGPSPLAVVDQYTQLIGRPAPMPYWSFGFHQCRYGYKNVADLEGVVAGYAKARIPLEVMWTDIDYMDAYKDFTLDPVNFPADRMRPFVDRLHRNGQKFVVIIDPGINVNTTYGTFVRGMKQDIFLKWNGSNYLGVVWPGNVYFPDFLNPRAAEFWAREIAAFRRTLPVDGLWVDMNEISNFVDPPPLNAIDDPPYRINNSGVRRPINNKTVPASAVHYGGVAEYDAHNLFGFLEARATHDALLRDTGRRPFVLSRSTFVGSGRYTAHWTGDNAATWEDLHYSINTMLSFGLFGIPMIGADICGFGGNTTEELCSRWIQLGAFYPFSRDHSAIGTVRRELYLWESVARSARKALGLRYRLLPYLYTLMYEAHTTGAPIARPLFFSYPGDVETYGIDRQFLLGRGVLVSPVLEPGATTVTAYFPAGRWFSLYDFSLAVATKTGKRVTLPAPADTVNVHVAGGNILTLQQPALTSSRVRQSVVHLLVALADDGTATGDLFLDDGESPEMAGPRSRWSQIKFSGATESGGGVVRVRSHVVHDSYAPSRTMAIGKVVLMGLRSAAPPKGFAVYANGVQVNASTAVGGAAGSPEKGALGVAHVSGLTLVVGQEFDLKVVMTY
T3 sequence (Q8J2T0 97-600): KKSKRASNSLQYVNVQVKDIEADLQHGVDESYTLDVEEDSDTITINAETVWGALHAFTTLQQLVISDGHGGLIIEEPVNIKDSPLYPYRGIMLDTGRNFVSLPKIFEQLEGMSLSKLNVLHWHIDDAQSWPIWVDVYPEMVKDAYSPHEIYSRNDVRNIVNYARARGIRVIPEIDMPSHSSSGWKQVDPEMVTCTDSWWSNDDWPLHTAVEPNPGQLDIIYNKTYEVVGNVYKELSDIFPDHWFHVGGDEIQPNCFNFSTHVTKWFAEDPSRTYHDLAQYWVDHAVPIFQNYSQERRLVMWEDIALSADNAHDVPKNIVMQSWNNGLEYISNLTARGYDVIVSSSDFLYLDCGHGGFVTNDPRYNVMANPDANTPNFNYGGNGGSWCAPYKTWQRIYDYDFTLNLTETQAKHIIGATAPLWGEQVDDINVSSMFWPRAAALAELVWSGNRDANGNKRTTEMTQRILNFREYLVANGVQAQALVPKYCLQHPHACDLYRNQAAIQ
T7 sequence (P69328 25-640): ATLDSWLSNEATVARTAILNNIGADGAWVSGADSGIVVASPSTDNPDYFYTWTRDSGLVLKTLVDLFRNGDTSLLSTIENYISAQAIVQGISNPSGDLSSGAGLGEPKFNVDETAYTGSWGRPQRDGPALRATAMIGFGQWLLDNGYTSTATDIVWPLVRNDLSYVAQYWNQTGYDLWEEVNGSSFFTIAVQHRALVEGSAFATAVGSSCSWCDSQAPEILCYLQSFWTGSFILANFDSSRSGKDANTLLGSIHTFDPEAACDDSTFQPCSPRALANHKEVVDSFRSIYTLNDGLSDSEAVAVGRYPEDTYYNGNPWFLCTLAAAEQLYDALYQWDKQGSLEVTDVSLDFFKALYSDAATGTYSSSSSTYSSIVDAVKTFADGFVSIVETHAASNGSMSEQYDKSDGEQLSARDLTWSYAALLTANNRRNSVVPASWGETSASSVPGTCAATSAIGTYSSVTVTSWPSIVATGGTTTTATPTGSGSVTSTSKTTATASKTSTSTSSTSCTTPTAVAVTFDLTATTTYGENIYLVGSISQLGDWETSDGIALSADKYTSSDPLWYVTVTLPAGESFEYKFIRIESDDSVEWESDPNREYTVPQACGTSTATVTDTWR

Compound | blood glucose (male ddy mouse [1]; 0 min after administration) [mg/dL] | blood glucose (male ddy mouse [1]; 15 min after administration) [mg/dL] | blood glucose (male ddy mouse [1]; 30 min after administration) [mg/dL] | blood glucose (male ddy mouse [1]; 60 min after administration) [mg/dL] | blood glucose (male ddy mouse [1]; 120 min after administration) [mg/dL] | % inhibition (α-D-glucosidase [2]) [%] | % inhibition (α-L-fucosidase) [%] | % inhibition [3] [%] | % inhibition (α-D-mannosidase) [%] | % inhibition (α-D-glucosidase [4]) [%] | % inhibition (α-D-galactosidase) [%] | other results
CN1C[C@@H](CO)C[C@H]1C(=O)O [Compound 1, N-methyl-4S-(hydroxymethyl)-2S-pyrrolidinecarboxylic acid] | 83 | 231 | 187 | 140 | 74 | 5 | 15 | −6 | 18 | <5 | <5 | –
CN1C[C@](O)(CO)C[C@H]1C(=O)O [Compound 3, N-methyl-4-hydroxy-4S-(hydroxymethyl)-2S-pyrrolidinecarboxylic acid] | 83 | 233 | 185 | 130 | 80 | 11 | – | −6 | 6 | <5 | <5 | blood glucose (male ddy mouse [5]; 0 min after administration): 109 mg/dL; blood glucose (male ddy mouse [5]; 15 min after administration): 183 mg/dL; blood glucose (male ddy mouse [5]; 30 min after administration): 143 mg/dL; blood glucose (male ddy mouse [5]; 60 min after administration): 106 mg/dL; blood glucose (male ddy mouse [5]; 120 min after administration): 80 mg/dL
OC[C@H]1NC[C@H](O)[C@@H](O)[C@@H]1O [DNJ, 1-deoxynojirimycin] | – | – | – | – | – | 99.56 | 5.86 | −5.50 | 26.65 | 35.67 | −3.34 | % inhibition [6]: 2%; glucosidase inhibition (in words) (glucosidases): expected strong inhibition of various glucosidases; % inhibition (Naringinase): 20.81%; % inhibition (β-D-mannosidase): −19.03%; % inhibition (β-D-galactosidase): 0.45%; % inhibition ([7]; Bovine kidney enzyme): −0.83%; % inhibition ([7]; Jack bean enzyme): 2.76%; % inhibition (Amyloglucosidase): 31.71%; % inhibition (β-D-glucosidase): 63.7%; % inhibition (α-D-glucosidase [8]): 99.48%
